Results taken from patent publication US11478477B2, “Method for treating cancer by combination of FAK/ALK/ROS1 inhibitor and EGFR inhibitor” (ASCENTAGE PHARMA (SUZHOU) CO., LTD., priority 2018, dated 2022).
Where two headings read alike, the source gives them in different places. Marks after values point to notes of the source that are not given here.

Legend:
NCI-H1975 tumor cells = experiment: WST (CCK-8) anti-proliferation experiment, single drugs and combinations; format: cell-based; settings: Homo sapiens, NCI-H1975, 72 hours
Method: Cell plating: Anti-proliferative effects were detected by a CCK-8 (Cell Counting Kit-8) assay based on water soluble tetrazolium salt (WST). The cells were seeded in 96-well plates, and only 95 μL of complete medium was added to each negative control group. 95 μL of complete medium cell suspension was added to each well to be tested, and the cell density was […]. Dosing (protection from light): In 96-well culture plates, according to the sensitivity of different cells to different drugs, the highest concentration was selected as 10 μM, and 9 concentrations were obtained by serial dilution in a ratio of 1:3.5 μL of compound was added to each well and 2-3 replicate wells were made for per concentration. After the compound was added, 96-well plates were incubated in a 5% CO2 incubator at 37° C. After 72 hours of action by using 9 different concentrations of the drug with 3 fixed doses of Compound 5, the combination effect of Compound 5 and the drug was tested. Reading: At the end of the culture, the old solution was removed from the well to be tested, and 100 μl/well CCK-8 test solution (containing 10% CCK-8, 5% FBS in the corresponding medium) was added. The plates were continuously incubated at 37° C. for 2-4 hours in a CO2 incubator. The OD values were measured using a microplate reader (SpectraMax Plus 384, Molecular Devices, LLC., US) under A450 nm. […] (O.D. of test well−O.D. of blank control well)/(O.D. of cell control well−O.D. of blank control well)×100%. IC50 values were calculated using Graphpad Prism 6.0 software for nonlinear regression data analysis method.

[1] = tested on: human NCI-H1975 lung cancer mouse xenograft tumor model; experiment: Example 4: Compound 5 with AZD9291 or afatinib in xenograft tumor model; format: in vivo; settings: for RTV on Day 15 after administration (mean ± standard error) / T/C on Day 15 after administration (%): Compound 5 100 mg/kg, AZD9291 5 then 2 mg/kg, afatinib 10 then 5 mg/kg, orally, once per day
Description: Subsequently, a H1975 cell-derived mouse xenograft tumor model was established to evaluate the anti-tumor effects of Compound 5 in combination with EGFR inhibitor AZD9291 (osimertinib) or afatinib.

[2] = tested on: human NCI-H1975 xenograft tumor model; experiment: Example 9: Compound 5 with AZD9291 or Avitinib in xenograft tumor model; format: in vivo, mouse; settings: Compound 5 50 mg/kg, AZD9291 2 mg/kg, Avitinib 10 mg/kg, orally, once per day
Description: (§1) The dosage regimen was as follows:

[3] = tested on: human NCI-H1975 xenograft tumor model; experiment: Example 8: Compound 5 or Ensartinib with Avitinib in xenograft tumor model; format: in vivo, mouse; settings: Compound 5 50 mg/kg; Ensartinib 20 mg/kg; Avitinib 10 mg/kg; orally, once per day, 21 days
Description: as §1

[4] = single EGFR inhibitor, read-out: Compound B IC50

SMILES	IC50 (NCI-H1975 tumor cells; [4])	RTV on Day 15 after administration (mean ± standard error) [1]	T/C on Day 15 after administration (%) [1]	tumor after discontinuation of administration ([1]; after discontinuation of administration)	RTV on Day 11 after administration (mean ± standard error) [2]	T/C on Day 11 after administration (%) [2]	RTV on Day 15 after administration (mean ± standard error) [2]	T/C on Day 15 after administration (%) [2]	RTV on Day 21 after administration (mean ± standard error) [3]	T/C on Day 21 after administration (%) [3]	IC50 (NCI-H1975 tumor cells; single drug, read-out: Compound A IC50)	T/C on Day 15 after administration (%) ([1]; listed as Afatinib)
C=CC(=O)Nc1cc(Nc2nccc(-c3cn(C)c4ccccc34)n2)c(OC)cc1N(C)CCN(C)C [AZD9291, osimertinib]	410 nM	1.4 ± 0.2	6%	tumor rebound was gradually observed	1.6 ± 0.3	1.6** %	1.8 ± 0.2	16.8%	–	–	–	–
C=CC(=O)Nc1cccc(Oc2nc(Nc3ccc(N4CCN(C)CC4)c(F)c3)nc3[nH]ccc23)c1 [Avitinib]	–	–	–	–	5.9 ± 0.4	82.0%	7.8 ± 0.7	72.4%	13.29 ± 2.65	83.1%	–	–
Cc1cc(Nc2ncc(Cl)c(Nc3ccccc3S(=O)(=O)C(C)C)n2)c(OC(C)C)cc1C1=CCN(C2CCOCC2)CC1 [Compound 5, 5-chloro-N^2-(2-isopropoxy-5-methyl-4-(1-(tetrahydro-2H-pyran-4-yl)-1,2,3,6-tetrahydropyridin-4-yl)phenyl)-N^4-(2-(isopropylsulfonyl)phenyl)pyrimidine-2,4-diamine]	–	13.8 ± 1.8	66.0%	–	8.2 ± 0.5	113.8%	10.3 ± 1.1	95.6%	12.8 ± 1.5	80%	3550 ± 1110 nM	–
C[C@@H]1CN(C(=O)c2ccc(NC(=O)c3cc(O[C@H](C)c4c(Cl)ccc(F)c4Cl)c(N)nn3)cc2)C[C@H](C)N1 [Ensartinib]	–	–	–	–	–	–	–	–	9.5 ± 1.1	61.3%	–	–
CN(C)C/C=C/C(=O)Nc1cc2c(Nc3ccc(F)c(Cl)c3)ncnc2cc1O[C@H]1CCOC1 [afatinib]	337 nM	15.5 ± 1.5	74%	–	–	–	–	–	–	–	–	74.0%
